Experimental data as given in patent US11110098B2, “Methods and medicaments for the treatment of renal cell carcinoma” (University of Kansas, priority 2017, dated 2021).
pIC50: −log10 of the molar value.

Tests used:
Caki-1 cells [1] = assay: Caki-1 xenograft tumor growth in nude mice; type: in vivo, Nu/Nu mice; conditions: OPC31260 30 and 60 mg/Kg
Method: Female Athymic Nude-Foxn1^nu mice (Nu/Nu mice), 7-8 weeks old and weighing ˜25 g were procured from Envigo/Harlan. All animal studies were carried out according to the protocols approved by the University of Kansas Medical Center Institutional Animal Care and Use Committee. Mice were subcutaneously injected on the right flank region with 1×10^6 Caki-1 cells in 100 μl of DMEM medium. […] Once the tumor volume reached ˜80-100 mm^3, mice were randomized into sub-groups based on the tumor volume. Animals were administered vehicle, OPC31260 (30 mg/Kg BWt.), OPC31260 (60 mg/Kg BWt) or dDAVP (1 μg/Kg BWt.) and vehicle (saline) by daily intraperitoneal injection, (60 mg/Kg BWt) or dDAVP (1 μg/Kg BWt.) and vehicle (saline) by daily intraperitoneal injection, or tolvaptan (120 mg/Kg BWt. in 1% aqueous solution of hydroxypropyl methylcellulose-dose derived from previous study^31) or vehicle by daily oral gavage for 28 days. Body weights and tumor volumes were measured every alternate day. At the end of the study, mice were injected with BRDU (100 mg/Kg BWt. by IP) 90 minutes before sacrifice. Tumors were harvested, photographed and weighed. Tumors were flash frozen or paraffin embedded for further analysis.

Caki-1 cells [2] = assay: TUNEL assay for apoptosis in xenograft tumor sections; type: in vivo, Nu/Nu mice; conditions: OPC31260 IP, tolvaptan 120 mg/Kg oral, dDAVP 1 μg/Kg IP, daily 28 days
Method: Female Athymic Nude-Foxn1^nu mice (Nu/Nu mice), 7-8 weeks old and weighing ˜25 g were procured from Envigo/Harlan. All animal studies were carried out according to the protocols approved by the University of Kansas Medical Center Institutional Animal Care and Use Committee. Mice were subcutaneously injected on the right flank region with 1×10^6 Caki-1 cells in 100 μl of DMEM medium. One week after injection, palpable tumors appeared and tumor volume was measured with calipers following the formula, […]. Once the tumor volume reached ˜80-100 mm^3, mice were randomized into sub-groups based on the tumor volume. Animals were administered vehicle, OPC31260 (30 mg/Kg BWt.), OPC31260 (60 mg/Kg BWt) or dDAVP (1 μg/Kg BWt.) and vehicle (saline) by daily intraperitoneal injection, or tolvaptan (120 mg/Kg BWt. in 1% aqueous solution of hydroxypropyl methylcellulose-dose derived from previous study^31) or vehicle by daily oral gavage for 28 days. Body weights and tumor volumes were measured every alternate day. At the end of the study, mice were injected with BRDU (100 mg/Kg BWt. by IP) 90 minutes before sacrifice. Tumors were harvested, photographed and weighed. Tumors were flash frozen or paraffin embedded for further analysis.
TUNEL assays were performed to check apoptosis using the in situ Cell Death Detection Kit (Roche Applied Science, Indianapolis, Ind.). Briefly, slides with 5-μm tumor sections were treated to a TUNEL reaction mixture containing terminal deoxynucleotidyl transferase and nucleotides, including tetramethylrhodamine-labeled dUTP. Both Dapi stained and TUNEL-positive nuclei were counted as described for proliferating cell nuclear antigen. All images were captured using a Nikon 80i microscope (Tokyo, Japan) in the KUMC Imaging Center.

786-O cells [3] = assay: Clonogenic assay, 786-O cells; type: cell-based, human; conditions: 48 h treatment, 10 days growth
Method: 786-O and Caki-1 cells were plated at very low density (1,000 cells/well) in six-well plates. After 16 h, cells were treated with different doses of OPC31260 and incubated for 48 h. Cells were washed and grown for 10 days until visible colonies formed. Colonies were fixed with 4% paraformaldehyde in PBS, stained with 0.25% crystal violet in 25% methanol, washed, air-dried and photographed. Crystal violet was dissolved in sodium citrate buffer (0.1M, 50% ethanol, pH 4.2) and absorbance was recorded at 590 nm.

786-O cells [4] = assay: MTT cell viability, 786-O cells; type: cell-based; conditions: Homo sapiens, 786-0, 48 h, read-out: dose at which cell viability declined by 50%
Method: MTT assays were performed to measure cell viability. Briefly, exponentially growing 786-O and Caki-1 cells were seeded in 96 well plates. After 24 h, cells were incubated with different doses of OPC31260 for 48 h. The cells were then incubated in MTT solution (5 mg/mL) for 2 h, following which the MTT solution was removed and the intracellular purple formazan was solubilized in DMSO and quantified by spectrophotometry at […].

Caki-1 cells [5] = assay: Annexin V-FITC/PI apoptosis/necrosis, Caki-1 cells; type: cell-based, human; conditions: 24 h
Method: Annexin V-FITC/PI staining was performed for quantification of apoptosis and necrotic cell death using FITC AnnexinV apoptosis detection kit I. Green FITC dye stains apoptotic cells whereas propidium iodide stains necrotic cells with red fluorescence. RCC cells were incubated with OPC31260 for 24 h and washed in cold PBS and resuspended in calcium containing binding buffer (10 mM HEPES, 140 mM NaCl, 5 mM CaCl2; pH 7.4) at a concentration of 1×10^6 cells/ml and stained for 15 min, with 5 μl Annexin V-FITC and 5 μl PI at 1 μg/ml (Cell signaling kit, USA). 10,000 cells were analyzed at an excitation wavelength of 488 nm and emission wavelengths of 530 nm for FITC fluorescence and 610 nm for PI fluorescence. The percentages of viable (Annexin V−PI−), early apoptotic (Annexin V+PI−), late apoptotic/necrotic (Annexin V+PI+) and necrotic cells (Annexin V-PI+) were evaluated with the CellQuestPro® software (Becton, Dickinson, Heidelberg, Germany).

CCRCC = assay: Immunocompetent animal model of spontaneous CCRCC; type: in vivo, Vh1Δ/ΔTrp53Δ/ΔRb1Δ/Δ mice; conditions: treatment from 30 weeks after start of tamoxifen till 56 weeks
Source text: The Vh1^Δ/ΔTrp53^Δ/ΔRb1^Δ/Δ mice (Harlander S et al, Nat Med 2017 23(7):869-877) can spontaneously develop CCRCC. Gene deletion of Vhl and tumor suppressors p53 and Rb 1 will be achieved using a Ksp1.3-CreERT2, tamoxifen-inducible system. For the studies, 6-week old Vh1^Δ/ΔTrp53^Δ/ΔRb1^Δ/ΔKsp1.3-CreERT2 mice will be treated with vehicle (saline) or tamoxifen for 14 days used to obtain wildtype control mice and Vh1^Δ/ΔTrp53^Δ/ΔRb1^Δ/Δ mice with RCC stumors. Starting 30 weeks after start of tamoxifen, the wildtype and Vh1^Δ/ΔTrp53^Δ/ΔRb1^Δ/Δ mice will be treated with vehicle, dDAVP, OPC31260, or tolvaptan till 56 weeks. The effect of V2R activation or inhibition will be monitored by MRI as well as by gross and pathological analysis and of kidneys at sacrifice.

Cc1ccccc1C(=O)Nc1ccc(C(=O)N2CCCC(N(C)C)c3ccccc32)cc1 (stereo not shown) [OPC31260, 5-(dimethylamino)-1-[4-(2-methylbenzamido)benzoyl]-2,3,4,5-tetrahydro-1H-benzazepine]
tumor volume (Caki-1 cells [1]; daily intraperitoneal injections, 28 days): failed to show a significant increase
tumors at sacrifice versus vehicle (tumor weights, FIG. 2) (Caki-1 cells [1]; daily intraperitoneal, after 28 days): significantly smaller than in the vehicle treatment group
TUNEL staining of tumors compared to vehicle (Caki-1 cells [2]): increased
dose from which a significant decline in colony formation was observed (786-O cells [3]): 5 µM
pIC50 (786-O cells [4]): 5.00 to 5.30
apoptosis (Caki-1 cells [5]): increase in apoptosis
expected tumor burden / tumor growth (CCRCC): significantly suppress tumor growth
